Measurements taken from patent publication US20160310434A1, “GASTRO-RETENTIVE ORAL PHARMACEUTICAL COMPOSITIONS” (ETHYPHARM, priority 2013, published 2016).

Columns and labels:
Type in all cases: physicochemical
Log P of baclofen = assay: Log P of baclofen
Text: (§1) Baclofen (below) is a BCS class III molecule.
At usual therapeutic doses, baclofen is known to have good oral bioavailability. However, its low log P indicates some hydrophilicity and thus low permeability. This observation is explained by the presence of specific transporters at the small intestine allowing the molecule to pass. This is even greater at the jejunum. […] This region of the digestive system contains no transporters but since the molecule is hydrophilic and of small size, weak passive transport through the tight junctions is possible. It thus appears that when a higher plasma concentration of baclofen is required, the taking of a higher dose is not effective due to saturation of the transporters. The clinical solution is thus to take small doses at shorter time intervals, which can quickly become burdensome for the patient.

[1] = pH of a saturated solution of baclofen
Text: as §1

pKa of baclofen = assay: pKa of baclofen
Text: as §1

Solubilities of baclofen = assay: Solubilities of baclofen
Text: as §1

For `NCC(CC(=O)O)c1ccc(Cl)cc1` (stereo not drawn) [baclofen, Baclofen], the “Log P” value (Log P of baclofen) was −1, the “pH of a saturated solution” value [1] was 6.5 and the pKa1 (pKa of baclofen) was “pKa1 = 3.87”. For the same compound, the pKa2 (pKa of baclofen) was “pKa2 = 9.62”, the Solubility (Solubilities of baclofen; 0.1N HCl) was “Soluble: 0.1N HCl, 0.1N NaOH” and the Solubility (Solubilities of baclofen; 0.1N NaOH) was “Soluble: 0.1N HCl, 0.1N NaOH”. For the same compound, the Solubility (Solubilities of baclofen; ethanol) was “Very slightly soluble: ethanol, methanol”, the Solubility (Solubilities of baclofen; methanol) was “Very slightly soluble: ethanol, methanol” and the Solubility (Solubilities of baclofen; water) was “Slightly soluble: water (3 mg/ml)”.
